Data set [1] deals with Rattus norvegicus. Description: (§1) Apparent volume of distribution during terminal phase in rat at 10 mg/kg, po. In kind it is ADME, organism-based. Also noted: dose 10 mg/kg, route oral. As to conditions: in vivo; call rule not given here.
Data set [2] can be described thus: AUC in rat at 10 mg/kg, po. In kind it is ADME, organism-based. Also noted: dose 10 mg/kg, route oral. As to conditions: plasma.
The nature of data set [3]: Cmax in rat at 10 mg/kg, po. In kind it is ADME, organism-based. On the set-up: dose 10 mg/kg, route oral. The note with it: in vivo.
Data set [4] can be described thus: Half life in rat at 10 mg/kg, po. In kind it is ADME, organism-based. On the set-up: dose 10 mg/kg, route oral. As to conditions: in vivo.
In data set [5] the test system is Rattus norvegicus. The experiment in a line: Inhibition of ADP-induced platelet aggregation in Sprague-Dawley rat assessed as bleeding time at 0.625 mg/kg, po after 2 hrs (reference value: 9.4 mins). It is filed as organism-based. On the set-up: dose 0.625 mg/kg, route oral. The note with it: in vivo.
A short description of data set [6]: as §1. It is filed as ADME, organism-based. On the set-up: dose 10 mg/kg, route oral. As to conditions: in vivo, read-out: Vz/F.
Data set [7] concerns Rattus norvegicus. Description: Inhibition of ADP-induced platelet aggregation in Sprague-Dawley rat assessed as bleeding time at 5 mg/kg, po after 2 hrs (reference value: 9.4 mins). It is filed as organism-based. Also noted: dose 5 mg/kg, route oral. As to conditions: in vivo.
In data set [8] the test system is Rattus norvegicus. Description: Inhibition of ADP-induced platelet aggregation in Sprague-Dawley rat assessed as blood loss volume at 5 mg/kg, po administered 2 hrs prior to transection measured for 30 mins (reference value: < 0.5 ml). It is filed as organism-based. Also noted: dose 5 mg/kg, route oral. As to conditions: in vivo, 0.5 h.
The target of another data set is Cytochrome P450 2C9 (Homo sapiens, UniProt P11712). Description: Inhibition of CYP2C9 (unknown origin). In kind it is ADME.
The subject of data set [9] is Rattus norvegicus. Description: Inhibition of ADP-induced platelet aggregation in Sprague-Dawley rat assessed as blood loss volume at 2.5 mg/kg, po administered 2 hrs prior to transection measured for 30 mins (reference value: < 0.5 ml). On the set-up: dose 2.5 mg/kg, route oral. As to conditions: in vivo, 0.5 h. It is filed as organism-based.
The nature of data set [10]: Cmax in dog at 1 mg/kg, po. As to conditions: in vivo. In kind it is ADME, organism-based, Canis lupus familiaris. On the set-up: dose 1 mg/kg, route oral.
In data set [11] the target is Voltage-gated inwardly rectifying potassium channel KCNH2 (Homo sapiens, UniProt Q12809). Description: Inhibition of human ERG channel at 10 uM by patch-clamp technique.
The nature of data set [12]: AUC in dog at 1 mg/kg, po. In kind it is ADME, organism-based, Canis lupus familiaris. On the set-up: dose 1 mg/kg, route oral. As to conditions: plasma.
Data set [13] deals with Rattus norvegicus. The experiment in a line: Inhibition of ADP-induced platelet aggregation in Sprague-Dawley rat plasma at 2.5 mg/kg, po treated 2.5 hrs prior to ADP-challenge measured after 2 mins by light transmission-based assay. It is filed as functional.
Data set [14] concerns Rattus norvegicus. Description: Inhibition of ADP-induced platelet aggregation in Sprague-Dawley rat assessed as blood loss volume at 0.625 mg/kg, po administered 2 hrs prior to transection measured for 30 mins (reference value: < 0.5 ml). It is filed as organism-based. On the set-up: dose 0.625 mg/kg, route oral. The note with it: in vivo, 0.5 h.
Data set [15] can be described thus: Apparent volume of distribution during terminal phase in dog at 1 mg/kg, po. Also noted: dose 1 mg/kg, route oral. It is filed as ADME, organism-based, Canis lupus familiaris. As to conditions: in vivo, read-out: Vz/F.
For data set [16], the system named is Rattus norvegicus. The experiment in a line: Inhibition of ADP-induced platelet aggregation in Sprague-Dawley rat assessed as bleeding time at 1.25 mg/kg, po after 2 hrs (reference value: 9.4 mins). It is filed as organism-based. As to conditions: in vivo. On the set-up: dose 1.25 mg/kg, route oral.
Data set [17] deals with Rattus norvegicus. Description: Inhibition of ADP-induced platelet aggregation in Sprague-Dawley rat assessed as bleeding time at 2.5 mg/kg, po after 2 hrs (reference value: 9.4 mins). In kind it is organism-based. Also noted: dose 2.5 mg/kg, route oral. The note with it: in vivo.
Data set [18] can be described thus: Apparent oral clearance in dog at 1 mg/kg. In kind it is ADME, organism-based, Canis lupus familiaris. Also noted: dose 1 mg/kg, route oral. The note with it: in vivo.
In data set [19] the test system is Rattus norvegicus. Description: Inhibition of ADP-induced platelet aggregation in Sprague-Dawley rat assessed as blood loss volume at 10 mg/kg, po administered 2 hrs prior to transection measured for 30 mins (reference value: < 0.5 ml). In kind it is organism-based. The note with it: in vivo, 0.5 h. On the set-up: dose 10 mg/kg, route oral.
For data set [20], the system named is Rattus norvegicus. Description: Inhibition of ADP-induced platelet aggregation in Sprague-Dawley rat assessed as bleeding time at 10 mg/kg, po after 2 hrs (reference value: 9.4 mins). In kind it is organism-based. On the set-up: dose 10 mg/kg, route oral. The note with it: in vivo.
Data set [21] is described as follows: Half life in dog at 1 mg/kg, po. It is filed as ADME, organism-based, Canis lupus familiaris. Also noted: dose 1 mg/kg, route oral. As to conditions: in vivo.
Data set [22] deals with Rattus norvegicus. The experiment in a line: Inhibition of ADP-induced platelet aggregation in Sprague-Dawley rat assessed as blood loss volume at 1.25 mg/kg, po administered 2 hrs prior to transection measured for 30 mins (reference value: < 0.5 ml). The note with it: in vivo, 0.5 h. Also noted: dose 1.25 mg/kg, route oral. In kind it is organism-based.
A short description of data set [23]: Inhibition of CYP450 (unknown origin) at 30 uM. It is filed as ADME. As to conditions: human.
A short description of data set [24]: Apparent oral clearance in rat at 10 mg/kg. On the set-up: dose 10 mg/kg, route oral. As to conditions: in vivo. It is filed as ADME, organism-based.
Data set [25] concerns the target P2Y purinoceptor 12 (Rattus norvegicus) (UniProt Q9EPX4). The experiment in a line: Antagonist activity at P2Y12 receptor in rat platelet-rich plasma assessed as inhibition of ADP-induced platelet aggregation at 3 uM incubated for 5 mins prior to ADP-challenge by light transmission-based assay.

Bounds are passed on as bounds.

P2Y purinoceptor 12 (Rattus norvegicus), sequence (Q9EPX4 whole entry): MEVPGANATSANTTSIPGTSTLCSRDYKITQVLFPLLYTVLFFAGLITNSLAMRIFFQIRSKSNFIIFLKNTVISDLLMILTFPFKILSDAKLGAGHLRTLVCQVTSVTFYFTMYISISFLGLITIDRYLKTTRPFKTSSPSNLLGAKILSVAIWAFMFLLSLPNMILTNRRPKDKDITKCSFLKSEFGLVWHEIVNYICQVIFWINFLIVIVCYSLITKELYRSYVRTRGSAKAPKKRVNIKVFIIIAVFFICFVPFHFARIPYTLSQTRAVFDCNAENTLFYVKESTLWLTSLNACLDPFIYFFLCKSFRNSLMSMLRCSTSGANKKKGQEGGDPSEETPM
Cytochrome P450 2C9, sequence (P11712 whole entry): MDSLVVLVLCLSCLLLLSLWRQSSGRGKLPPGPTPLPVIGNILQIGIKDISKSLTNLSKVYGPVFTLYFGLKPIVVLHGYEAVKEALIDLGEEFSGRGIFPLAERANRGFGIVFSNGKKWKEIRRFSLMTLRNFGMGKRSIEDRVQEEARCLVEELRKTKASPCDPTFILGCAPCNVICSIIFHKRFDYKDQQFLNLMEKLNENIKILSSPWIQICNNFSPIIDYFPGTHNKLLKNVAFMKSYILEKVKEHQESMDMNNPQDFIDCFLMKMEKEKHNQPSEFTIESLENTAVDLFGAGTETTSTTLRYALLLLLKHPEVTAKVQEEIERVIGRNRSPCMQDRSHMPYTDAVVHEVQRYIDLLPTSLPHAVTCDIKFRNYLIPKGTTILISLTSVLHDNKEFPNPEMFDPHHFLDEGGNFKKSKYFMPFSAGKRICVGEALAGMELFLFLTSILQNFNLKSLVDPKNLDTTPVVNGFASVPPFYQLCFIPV
Voltage-gated inwardly rectifying potassium channel KCNH2, sequence (Q12809 whole entry): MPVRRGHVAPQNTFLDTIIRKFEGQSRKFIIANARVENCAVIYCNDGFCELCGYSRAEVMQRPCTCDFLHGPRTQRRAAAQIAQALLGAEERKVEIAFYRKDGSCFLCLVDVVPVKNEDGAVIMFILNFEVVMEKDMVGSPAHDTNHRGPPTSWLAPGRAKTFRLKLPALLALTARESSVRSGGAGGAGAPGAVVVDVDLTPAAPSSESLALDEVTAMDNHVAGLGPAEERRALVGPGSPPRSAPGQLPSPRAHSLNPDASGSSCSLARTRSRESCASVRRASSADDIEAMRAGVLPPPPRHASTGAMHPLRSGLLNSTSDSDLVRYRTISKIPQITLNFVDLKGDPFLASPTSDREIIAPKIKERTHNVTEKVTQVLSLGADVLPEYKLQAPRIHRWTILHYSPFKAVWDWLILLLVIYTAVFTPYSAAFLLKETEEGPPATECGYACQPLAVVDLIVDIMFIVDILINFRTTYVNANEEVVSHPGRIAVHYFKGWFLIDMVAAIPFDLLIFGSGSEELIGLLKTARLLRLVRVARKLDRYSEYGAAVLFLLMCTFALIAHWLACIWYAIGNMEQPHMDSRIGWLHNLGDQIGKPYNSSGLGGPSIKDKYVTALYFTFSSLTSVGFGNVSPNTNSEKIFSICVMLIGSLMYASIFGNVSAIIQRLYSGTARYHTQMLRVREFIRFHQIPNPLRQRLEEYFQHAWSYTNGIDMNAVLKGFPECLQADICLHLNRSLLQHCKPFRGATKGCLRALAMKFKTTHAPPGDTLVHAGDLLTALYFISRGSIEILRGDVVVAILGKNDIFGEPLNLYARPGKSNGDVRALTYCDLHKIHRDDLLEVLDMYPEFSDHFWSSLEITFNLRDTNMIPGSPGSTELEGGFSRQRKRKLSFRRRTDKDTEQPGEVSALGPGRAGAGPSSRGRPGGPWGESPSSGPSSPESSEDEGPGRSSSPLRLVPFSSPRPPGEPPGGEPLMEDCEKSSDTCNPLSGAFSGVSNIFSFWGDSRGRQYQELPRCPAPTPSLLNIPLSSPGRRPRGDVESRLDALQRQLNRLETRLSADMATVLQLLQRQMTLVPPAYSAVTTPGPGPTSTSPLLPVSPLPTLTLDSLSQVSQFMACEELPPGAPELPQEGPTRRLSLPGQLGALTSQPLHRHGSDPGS

`CCCSc1nc(N[C@@H]2C[C@H]2c2ccc(F)c(F)c2)c2nnn([C@@H]3C[C@H](OCC(O)CO)[C@@H](O)[C@H]3O)c2n1` (mixture of isomers): the Vz/F in the data set with Rattus norvegicus [1] was determined as 1513 L/kg. The molecule also yielded an AUC in data set [2] of 13.8 ng·h/mL. The Cmax in data set [3] worked out at 3.89 ng/mL. Also, the half-life in data set [4] was 1.72 h.
Take `CCCSc1nc(N[C@@H]2C[C@H]2c2ccc(F)c(F)c2)c2nnn([C@H]3[C@H](O)[C@H](O)[C@@H](O)[C@H]3F)c2n1`: the Time was 8.59 min in the data set on Rattus norvegicus [5]; more than 30 min in the data set with Rattus norvegicus [7]; 10.67 min with Rattus norvegicus [16]; 9.76 min with Rattus norvegicus [17]; more than 30 min with Rattus norvegicus [20]. Also, the values for the Vd/F in data set [6] and in [15] were 43.4 L/kg and 6.26 L/kg, respectively. Moreover, the Activity in the data set on Rattus norvegicus [8] was 0.9 mL; in the data set on Rattus norvegicus [9], less than 0.5 mL; with Rattus norvegicus [14], less than 0.5 mL; in the data set with Rattus norvegicus [19], 1.75 mL; in the data set with Rattus norvegicus [22], less than 0.5 mL. This molecule registered an IC50 on Cytochrome P450 2C9 of 8.82 µM. For the same molecule, the AUC amounted to 1200 ng·h/mL in [2] and 469 ng·h/mL in data set [12]. The Cmax in data set [3] came to 303 ng/mL; in data set [10], 110 ng/mL. Moreover, the “inhibition (INH)” value in data set [11] and in data set [23] was “Not Active” throughout. The same molecule came in with an inhibition in vivo at 2.5 mg/kg in the data set with Rattus norvegicus [13] of 95%. Moreover, the values for the CL/F in data set [18] and in [24] were 36.7 mL/min/kg and 139 mL/min/kg, respectively. The half-life is 1.94 h in [21] and 3.56 h in data set [4].
With `CCCSc1nc(N[C@@H]2C[C@H]2c2ccc(F)c(F)c2)c2nnn([C@H]3[C@H](O)[C@H](O)[C@]4(CO)C[C@H]34)c2n1`, in data set [25], the inhibition stood at 0%.
As for `CCCSc1nc(N[C@@H]2C[C@H]2c2ccc(F)c(F)c2)c2nnn(C3[C@H](O)[C@H](O)[C@@H](O)[C@H]3O)c2n1` (some centres undefined), in data set [6], the Vd/F came out at 217 L/kg. In data set [2], this molecule yielded an AUC of 146 ng·h/mL. The molecule also came in with a Cmax in data set [3] of 55.4 ng/mL. Further, the half-life in [4] is 1.7 h. In addition, in [24], the CL/F is 2200 mL/min/kg.
In the case of `CCCSc1nc(N[C@@H]2C[C@H]2c2ccc(F)c(F)c2)c2nnn([C@H]3[C@H](O)[C@H](O)[C@@H](OCCO)[C@H]3F)c2n1`, the figures for the Vd/F in data set [6] and in data set [15] were 82.4 L/kg and 15.4 L/kg, respectively. In addition, the AUC in [2] is 512 ng·h/mL; in data set [12], 218 ng·h/mL. The figures for the Cmax in data set [3] and in data set [10] were 127 ng/mL and 55.6 ng/mL, respectively. Besides, the apparent clearance CL/F was 72.3 mL/min/kg in data set [18] and 350 mL/min/kg in data set [24]. Also, the half-life was 2.46 h in data set [21] and 2.83 h in data set [4].
`CCCSc1nc(N[C@@H]2C[C@H]2c2ccc(Cl)s2)c2nnn([C@@H]3C[C@H](OCCO)[C@@H](O)[C@H]3O)c2n1`: the Vd/F in data set [6] stood at 206 L/kg. In addition, the AUC in [2] was 64.4 ng·h/mL. For the same molecule, the Cmax in [3] stood at 28.7 ng/mL. Moreover, the half-life in data set [4] is 3.35 h. Moreover, the CL/F in data set [24] is 712 mL/min/kg.
Consider `CCCSc1nc(N[C@@H]2C[C@H]2c2ccc(F)c(F)c2)c2nnn([C@@H]3C[C@H](OCCOCCO)[C@@H](O)[C@H]3O)c2n1`, for which, in data set [25], the inhibition amounted to 0%.
Still for that read-out and setting: the figure for `CCCSc1nc(NC2Cc3ccccc3C2)c2nnn([C@@H]3C[C@H](OCCO)[C@@H](O)[C@H]3O)c2n1` is 0%.
In the case of `CCCSc1nc(N[C@@H]2C[C@H]2c2ccc(F)c(F)c2)c2nnn([C@@H]3C[C@H](OCCO)[C@@H](O)[C@H]3O)c2n1` [TICAGRELOR], the Vd/F in [6] was found to be 24.2 L/kg; in [15], 5.76 L/kg. The Activity in the data set on Rattus norvegicus [9] amounted to 0.5 mL. The values for the AUC in data set [2] and in data set [12] were 1400 ng·h/mL and 504 ng·h/mL, respectively. In addition, the Cmax in [3] was 267 ng/mL; in data set [10], 125 ng/mL. In the data set with Rattus norvegicus [13], this molecule yielded an inhibition in vivo at 2.5 mg/kg of 59%. Further, in the data set on Rattus norvegicus [17], the Time is reported as more than 30 min. Besides, the CL/F in data set [18] was 32.8 mL/min/kg; in data set [24], 133 mL/min/kg. Moreover, the half-life is 2.03 h in [21] and 2.23 h in data set [4].
`CCCSc1nc(N[C@@H]2C[C@H]2c2ccc(F)c(F)c2)c2nnn([C@@H]3C[C@H](F)[C@@H](O)[C@H]3O)c2n1`: the results for the Vd/F in data set [6] and in data set [15] were 27.1 L/kg and 88.4 L/kg, respectively. Further, the AUC in data set [2] is 1270 ng·h/mL; in [12], 24.3 ng·h/mL. Also, the Cmax in data set [3] stood at 195 ng/mL; in data set [10], 8.29 ng/mL. In addition, the CL/F in data set [18] is 865 mL/min/kg; in data set [24], 137 mL/min/kg. The half-life in [21] is 1.21 h; in data set [4] it was 2.33 h.

Broadly, the AUC is the area under the concentration-time curve, a measure of exposure. Low readings indicate less exposure, high ones more exposure. A word on the Cmax: it is the maximum level reached in the sampled fluid or tissue. As a reminder, the half-life is the time in which the quantity being followed falls by half. Low readings indicate fast loss, high ones slow loss. A word on the IC50: it is the point on the concentration scale where inhibition reaches its midpoint. The inhibition in vivo is the percentage by which the read-out fell short of the control. Higher therefore signals strong suppression. By CL/F is commonly meant clearance divided by bioavailability, as obtained after extravascular dosing. Broadly, the inhibition is the relative decrease from the control value, in per cent.

These data come from ChEMBL document CHEMBL3098001, “Synthesis and biological evaluation of cyclopentyl-triazolol-pyrimidine (CPTP) based P2Y12 antagonists” (Bioorg Med Chem Lett, 2014).
